The subject of series [1] is TC-32 (Ewing sarcoma, EWS-FLI1 Type 1) cell line. The note with it: for TC-32 Ewing sarcoma EWS-FLI1 Type 1 GI50: 72 h growth inhibition, TC-32 cells; for GI50 ratio PC-3:TC-32: selectivity, GI50 in PC-3 over GI50 in TC-32.
The test system of series [2] is PC-3 (prostate cancer, no ETS translocation) cell line. Briefly: 72 h growth inhibition (GI50) assay in PC-3. The note with it: read-out: PC-3 Prostate cancer No ETS Translocation GI50.
Another series concerns A549 cells. The series is described as follows: 72 h GI50 assay in A549. The note with it: read-out: A549 GI50; 72 h growth inhibition.
Series [3] concerns TC-71 Ewing sarcoma cells (EWS-FLI1 Type 1). The note with it: 72 h growth inhibition.
For series [4], the system named is A-673 Ewing sarcoma cells (EWS-FLI1 Type 1). Briefly: 72 h GI50 assay in A-673. The note with it: read-out: A-673 EWS-FLI1 Type 1 GI50; 72 h growth inhibition.
Series [5] has as its system ES-2 Ewing sarcoma cells (EWS-FLI1 Type 3). Briefly: 72 h GI50 assay in ES-2. The note with it: read-out: ES-2 EWS-FLI1 Type 3 GI50; 72 h growth inhibition.
The next series has as its system HeLa cells. Briefly: 72 h GI50 assay in HeLa. The note with it: read-out: HeLa GI50; 72 h growth inhibition.
Series [6] concerns RD-ES Ewing sarcoma cells (EWS-FLI1 Type 2). The series is described as follows: 72 h GI50 assay in RD-ES. The note with it: read-out: RD-ES EWS-FLI1 Type 2 GI50; 72 h growth inhibition.
The test system of series [7] is VCaP prostate cancer cells (TMPRSS2-ERG). The series is described as follows: 72 h GI50 assay in VCaP. The note with it: for GI50: read-out: VCaP Prostate Cancer TMPRSS2-ERG GI50, 72 h growth inhibition, VCaP cells; for Ratio of median GI50 Prostate cells lacking TMPRSS2-ERG:VCaP: selectivity for VCaP over other prostate cancer cell lines.
The next series concerns DMS 114 cells. Briefly: 72 h GI50 assay in DMS 114. The note with it: read-out: DMS 114 GI50; 72 h growth inhibition.
The next series relates to LNCaP cells. The series is described as follows: 72 h GI50 assay in LNCaP. The note with it: read-out: LNCaP GI50; 72 h growth inhibition.
Series [8] deals with 5838 Ewing sarcoma cells (EWS-ERG). Briefly: 72 h GI50 assay in 5838. The note with it: for GI50: read-out: 5838 Ewing Sarcoma EWS-ERG GI50, 72 h growth inhibition, 5838 cells; for Ratio of median GI50 Non-Ewing sarcoma cell lines (cf Table 3):5838: selectivity for 5838 cells.
The next series has as its system CMV promoter. Briefly: CMV promoter luciferase reporter assay in stably transfected TC-32 cells (non-specific control). The series is classed as cell-based. The note with it: 12 h; for CMV promoter driven luciferase signal: treated up to 10 μM. The source says:
Full-length NR0B1 promoter sequence was PCR amplified using Q5 high-fidelity DNA polymerase (New England Biolabs, Ipswich, Mass.) from genomic DNA of TC-32 cells and cloned into the pGLUC-Basic 2 vector (New England Biolabs, Ipswich, Mass.). XhoI and KpnI restriction sites were incorporated into the primers. After restriction enzyme (New England Biolabs, Ipswich, Mass.) digest and purification by gel electrophoresis, the target amplicon was ligated into the pGLUC-Basic 2 vector using T4 DNA ligase (Thermo Fisher Scientific, Waltham, Mass.). Chemically competent TOP10 E. coli cells were used to propagate vectors under ampicillin selection (100 μg/mL) (Thermo Fisher Scientific, Waltham, Mass.). The resulting vectors were extracted and purified using GeneJET plasmid prep kit (Thermo Fisher Scientific, Waltham, Mass.). The purified vector was transfected into TC-32 cells using lipofectamine 3000 (Thermo Fisher Scientific, Waltham, Mass.) with subsequent G418 selection (1 mg/mL) (VWR, Radnor, Pa.). Separately, TC-32 cells were transfected with pCMV-Red Firefly Vector (Thermo Fisher Scientific, Waltham, Mass.) with subsequent puromycin selection (0.1 mg/mL) (Sigma, St. Louis, Mo.) as a control.
Selected TC-32 cells, expressing either NR0B1 or CMV luciferase reporter vectors, were seeded in clear 96-well plates at a density of 10,000 cells/well. […] After a 12 h treatment, media was removed and cells were washed 3 times with DPBS (Thermo Fisher Scientific, Waltham, Mass.). Cells were directly lysed on a plate shaker for 30 min at room temperature using 100 μL of passive membrane lysis solution. Lysates (80 μL) were transferred to a white luminescence plate. Luciferase substrate, either coelenterazine or D-luciferin (50 μL of 1× solution), for NR0B1 or CMV vectors, respectively, was added in a Glomax 96 microplate luminometer (Promega, Madison, Wis.) and luminescence was immediately measured. Delay before and after injections were set to the default of 0.4 s and a 10 s integration time was used. All reagents used in this assay were from the dual luciferase reporter assay system (Promega, Madison, Wis.). Concurrently, an additional 96 well plate was seeded and treated under the exact same conditions to determine cell viability using resazurin assay. Luminescence results were normalized to cell viability.
(In a reporter assay the amount or activity of a reporter protein is the signal.)

The test system of series [9] is ES-8 Ewing sarcoma cells (EWS-FLI1 Type 2). The series is described as follows: 72 h GI50 assay in ES-8. The note with it: read-out: ES-8 EWS-FLI1 Type 2 GI50; 72 h growth inhibition.
Series [10] deals with Ewing sarcoma cell lines (TC-32, 5838, RD-ES, TC-71, A-673, ES-2, ES-7, ES-8). Briefly: Median GI50 in panel of Ewing sarcoma cell lines. The note with it: for Ratio of Median GI50 non-Ewing sarcoma:Ewing sarcoma (Selectivity Index): median GI50 non-Ewing panel over Ewing panel; for GI50: read-out: Median GI50 in Ewing sarcoma cell lines, median over 8 Ewing sarcoma cell lines, 72 h; for Selectivity Index ratio Analogues:MTM (1): selectivity index relative to MTM (1).

For the next series, the system named is PANC-1 cells. The series is described as follows: 72 h GI50 assay in PANC-1. The note with it: read-out: PANC-1 GI50; 72 h growth inhibition.
The subject of a further series is DU 145 cells. The series is described as follows: 72 h GI50 assay in DU 145. The note with it: read-out: DU 145 GI50; 72 h growth inhibition.
Another series relates to HCT 116 cells. The series is described as follows: 72 h GI50 assay in HCT 116. The note with it: read-out: HCT 116 GI50; 72 h growth inhibition.
The subject of series [11] is ES-7 Ewing sarcoma cells (EWS-FLI1 Type 4). Briefly: 72 h GI50 assay in ES-7. The note with it: read-out: ES-7 EWS-FLI1 Type 4 GI50; 72 h growth inhibition.
[12] abbreviates: 72 h growth inhibition, PC-3 cells.

Usually GI50 stands for the concentration at which growth is held to half of that of the control.

“And” between values parts separate entries of the source, which are not always exact repeats. Equal values may be shown once. Read-outs that look alike come from different tables or passages of the source. Where only a bound is given, the exact number is not on record here.

For the compound `COC(=O)C(Cc1ccc2ccccc2c1)NC(=O)C(OC)C1Cc2cc3cc(OC4CC(OC5CC(O)C(O)C(C)O5)C(O)C(C)O4)c(C)c(O)c3c(O)c2C(=O)C1OC1CC(OC2CC(OC3CC(C)(O)C(O)C(C)O3)C(O)C(C)O2)C(O)C(C)O1` (centres unmarked) [Analogue 58], in series [1], the “TC-32 Ewing sarcoma EWS-FLI1 Type 1 GI50” value is given as 541 nM and the “GI50 ratio PC-3:TC-32” value is given as 3.0. The GI50 in [2] (setting [12]) was found to be 1600 nM.
Turning to `COC(=O)C(Cc1ccccc1)NC(=O)C(Cc1c[nH]c2ccccc12)NC(=O)C(OC)C1Cc2cc3cc(OC4CC(OC5CC(O)C(O)C(C)O5)C(O)C(C)O4)c(C)c(O)c3c(O)c2C(=O)C1OC1CC(OC2CC(OC3CC(C)(O)C(O)C(C)O3)C(O)C(C)O2)C(O)C(C)O1` (centres unmarked) [Analogue 59, MTMSA-Trp-Phe], the GI50 with A549 cells came out at 1940 nM; in series [4] it was 238 nM; in series [5] it was 125 nM; in the series on HeLa cells it was 397 nM; in [6], 54 nM; in series [7], 21 nM. The GI50 was 18 nM in the series on DMS 114 cells; 697 nM in the series with LNCaP cells; 39 nM in series [8]; 74 nM in series [9]; 64 nM in [10]; 152 nM with PANC-1 cells. Besides, the figures for the GI50 (in the series on DU 145 cells; with HCT 116 cells; in series [2] (setting [12])) were 67 nM, 82 nM and 75 nM, respectively. Moreover, the “TC-71 EWS-FLI1 Type 1 GI50” value in series [3] was 19 nM. In series [7], the “Ratio of median GI50 Prostate cells lacking TMPRSS2-ERG:VCaP” value is 3.6. The “Ratio of median GI50 Non-Ewing sarcoma cell lines (cf Table 3):5838” value in series [8] was determined as 3.9. The “TC-32 Ewing sarcoma EWS-FLI1 Type 1 GI50” value in series [1] came out at 37 nM. Further, the “GI50 ratio PC-3:TC-32” value in series [1] is 2.0. For the same compound, the “CMV driven luciferase expression decreased down to” value in the series on CMV promoter (concentrations between 1 and 10 μM) is listed as roughly 75%. For the same compound, the results for the “CMV promoter driven luciferase signal” value in the series on CMV promoter and with CMV promoter (listed as MTMSA-Trp-Phe (59)) were “decreased” and “reduces”, respectively. In addition, the “Ratio of Median GI50 non-Ewing sarcoma:Ewing sarcoma (Selectivity Index)” value in series [10] is 2.4 and < 3. Further, the “Selectivity Index ratio Analogues:MTM (1)” value in series [10] turned out to be 1.6.
For the compound `COC(=O)C(Cc1cn(C)c2ccccc12)NC(=O)C(Cc1cn(C)c2ccccc12)NC(=O)C(OC)C1Cc2cc3cc(OC4CC(OC5CC(O)C(O)C(C)O5)C(O)C(C)O4)c(C)c(O)c3c(O)c2C(=O)C1OC1CC(OC2CC(OC3CC(C)(O)C(O)C(C)O3)C(O)C(C)O2)C(O)C(C)O1` (centres unmarked) [Analogue 62], the “TC-32 Ewing sarcoma EWS-FLI1 Type 1 GI50” value in [1] was determined as 7834 nM. Besides, the GI50 in [2] (setting [12]) is greater than 10000 nM.
For the compound `COC(=O)C(Cc1ccccc1)NC(=O)C(Cc1ccccc1)NC(=O)C(OC)C1Cc2cc3cc(OC4CC(OC5CC(O)C(O)C(C)O5)C(O)C(C)O4)c(C)c(O)c3c(O)c2C(=O)C1OC1CC(OC2CC(OC3CC(C)(O)C(O)C(C)O3)C(O)C(C)O2)C(O)C(C)O1` (centres unmarked) [Analogue 63, MTMSA-Phe-Phe], the “TC-71 EWS-FLI1 Type 1 GI50” value in [3] is reported as 211 nM. Also, the concentration for 50% growth inhibition (GI50) in [4] is 491 nM; in the series with HeLa cells, 1770 nM; in [6], 3050 nM; in series [7] it was 442 nM; with DMS 114 cells it was 2310 nM; in series [8], 579 nM. The GI50 is 542 nM in [9]; 910 nM in series [11]; 1960 nM in the series with PANC-1 cells; 159 nM in the series on DU 145 cells; 437 nM with HCT 116 cells; 1130 nM in series [2] (setting [12]). Further, the “Ratio of median GI50 Prostate cells lacking TMPRSS2-ERG:VCaP” value in series [7] is recorded as 2.6. The “Ratio of median GI50 Non-Ewing sarcoma cell lines (cf Table 3):5838” value in [8] is reported as 3.4. Further, the “TC-32 Ewing sarcoma EWS-FLI1 Type 1 GI50” value in series [1] turned out to be 232 nM. Moreover, in series [1], the “GI50 ratio PC-3:TC-32” value came out at 4.9. Besides, the “Ratio of Median GI50 non-Ewing sarcoma:Ewing sarcoma (Selectivity Index)” value in series [10] was 3.5. The “Selectivity Index ratio Analogues:MTM (1)” value in series [10] turned out to be 2.3.
Regarding `CO[C@H](C(=O)O)[C@@H]1Cc2cc3cc(OC4CC(OC5CC(O)[C@H](O)C(C)O5)[C@H](O)C(C)O4)c(C)c(O)c3c(O)c2C(=O)[C@H]1OC1CC(OC2CC(OC3CC(C)(O)[C@H](O)C(C)O3)[C@@H](O)C(C)O2)[C@H](O)C(C)O1` (some centres unmarked) [MTMSA (2), Mithramycin SA, reference compound], the “TC-32 Ewing sarcoma EWS-FLI1 Type 1 GI50” value in [1] is greater than 10000 nM. For the same compound, the GI50 in [2] (Homo sapiens, PC-3, 72 h) was greater than 10000 nM.
For the compound “Mithramycin SA Phenylalanine [MTMSA-Phe (4), reference compound]”, the GI50 with A549 cells stood at 1240 nM; in series [5], 261 nM; in the series on HeLa cells it was 545 nM; in series [6] it was 91 nM; with DMS 114 cells it was 483 nM; in series [9] it was 72 nM. For the same compound, the GI50 in series [10] came out at 117 nM; in series [11], 156 nM; with PANC-1 cells, 261 nM; with DU 145 cells it was 315 nM; with HCT 116 cells it was 256 nM; in [2] (setting [12]) it was 910 nM. Further, the “TC-71 EWS-FLI1 Type 1 GI50” value in series [3] is on record as 143 nM. Moreover, in series [1], the “TC-32 Ewing sarcoma EWS-FLI1 Type 1 GI50” value is 32 nM.

For the origin of these results see patent US11224609B2, “Mithramycin derivatives having increased selectivity and anti-cancer activity” (University of Kentucky Research Foundation, priority 2017, dated 2022).
